Each block holds one compound with its values, some of them ahead of it.
What was measured:
human Nav1.1 = biological target: T1, human Nav1.1 (Homo sapiens, UniProt P35498); assay: Amplification of Nav1.1-derived voltage-dependent sodium current (Nav1.1 current), cell line stably expressing human Nav1.1, automated patch clamp; type: cell-based; conditions: for activation at 10 µM / activation at 3 µM / activation at 1 µM: read-out: Nav1.1 current amplification rate (%)
T1 construct: host or cells: HEK293
Summary of the method: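 Amplification rate (%) is 100 × post-compound/pre-compound Nav1.1 peak current or AUC, minus 100. Ramp-evoked sodium currents were recorded by automated patch clamp in a human Nav1.1 HEK293 stable line, restricted to cells exceeding 500 pA, with compounds added in extracellular solution containing 1% DMSO.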

human Nav1.5 = biological target: T2, human Nav1.5 (Homo sapiens, UniProt Q14524); assay: Amplification of Nav1.5-derived voltage-dependent sodium current (Nav1.5 current), cell line stably expressing human Nav1.5, automated patch clamp; type: cell-based; conditions: for activation at 10 µM / activation at 3 µM / activation at 1 µM: read-out: Nav1.5 current amplification rate (%)
T2 construct: expressed in transfected cells; host or cells: CHO-K1 (T-REx System, ThermoFisher Scientific)
Description: Test 2: Evaluation of the Amplification in Nav1.5-Derived Voltage-Dependent Sodium Current (Nav1.5 Current) by Using a Cell Line Stably Expressing Human Nav1.5
A CHO-K1 cell line (Chinese hamster ovary) stably expressing human Nav1.5 (Gene Bank Accession No: P000326.2) was obtained by using purchased T-Rex System (ThermoFisher Scientific, USA), and used for the present test. The effect of test compounds on the amplification of Nav1.5 current was evaluated by using a cell line stably expressing human Nav1.5 and HTS automated patch clamp system, similarly in the method using Nav1.1. In other words, test compounds were added in an extracellular fluid which contained 1% DMSO and 500 nmol/L Tetrodotoxin (TTX), and evaluated as a change of the peak value of Nav1.5 current and the area under the curve (AUC). The induction and the measurement of Nav1.5 current, the pharmacologic effect on Nav1.5 current, and a method for pharmacological evaluation were carried out by the same method as in Nav1.1.

[1] = 10 μmol/L compound, change of the area under the curve of Nav1.1 current (Test Result 1)
[2] = 10 μmol/L compound, change of the area under the curve of Nav1.5 current (Test Result 1)
[3] = compound 3 μmol/L, HEK293 stably expressing human Nav1.1
[4] = compound 3 μmol/L, CHO-K1 stably expressing human Nav1.5
[5] = compound 1 μmol/L, HEK293 stably expressing human Nav1.1
[6] = compound 1 μmol/L, CHO-K1 stably expressing human Nav1.5

T2 sequence (Q14524 1-2015 isoform Q14524-2): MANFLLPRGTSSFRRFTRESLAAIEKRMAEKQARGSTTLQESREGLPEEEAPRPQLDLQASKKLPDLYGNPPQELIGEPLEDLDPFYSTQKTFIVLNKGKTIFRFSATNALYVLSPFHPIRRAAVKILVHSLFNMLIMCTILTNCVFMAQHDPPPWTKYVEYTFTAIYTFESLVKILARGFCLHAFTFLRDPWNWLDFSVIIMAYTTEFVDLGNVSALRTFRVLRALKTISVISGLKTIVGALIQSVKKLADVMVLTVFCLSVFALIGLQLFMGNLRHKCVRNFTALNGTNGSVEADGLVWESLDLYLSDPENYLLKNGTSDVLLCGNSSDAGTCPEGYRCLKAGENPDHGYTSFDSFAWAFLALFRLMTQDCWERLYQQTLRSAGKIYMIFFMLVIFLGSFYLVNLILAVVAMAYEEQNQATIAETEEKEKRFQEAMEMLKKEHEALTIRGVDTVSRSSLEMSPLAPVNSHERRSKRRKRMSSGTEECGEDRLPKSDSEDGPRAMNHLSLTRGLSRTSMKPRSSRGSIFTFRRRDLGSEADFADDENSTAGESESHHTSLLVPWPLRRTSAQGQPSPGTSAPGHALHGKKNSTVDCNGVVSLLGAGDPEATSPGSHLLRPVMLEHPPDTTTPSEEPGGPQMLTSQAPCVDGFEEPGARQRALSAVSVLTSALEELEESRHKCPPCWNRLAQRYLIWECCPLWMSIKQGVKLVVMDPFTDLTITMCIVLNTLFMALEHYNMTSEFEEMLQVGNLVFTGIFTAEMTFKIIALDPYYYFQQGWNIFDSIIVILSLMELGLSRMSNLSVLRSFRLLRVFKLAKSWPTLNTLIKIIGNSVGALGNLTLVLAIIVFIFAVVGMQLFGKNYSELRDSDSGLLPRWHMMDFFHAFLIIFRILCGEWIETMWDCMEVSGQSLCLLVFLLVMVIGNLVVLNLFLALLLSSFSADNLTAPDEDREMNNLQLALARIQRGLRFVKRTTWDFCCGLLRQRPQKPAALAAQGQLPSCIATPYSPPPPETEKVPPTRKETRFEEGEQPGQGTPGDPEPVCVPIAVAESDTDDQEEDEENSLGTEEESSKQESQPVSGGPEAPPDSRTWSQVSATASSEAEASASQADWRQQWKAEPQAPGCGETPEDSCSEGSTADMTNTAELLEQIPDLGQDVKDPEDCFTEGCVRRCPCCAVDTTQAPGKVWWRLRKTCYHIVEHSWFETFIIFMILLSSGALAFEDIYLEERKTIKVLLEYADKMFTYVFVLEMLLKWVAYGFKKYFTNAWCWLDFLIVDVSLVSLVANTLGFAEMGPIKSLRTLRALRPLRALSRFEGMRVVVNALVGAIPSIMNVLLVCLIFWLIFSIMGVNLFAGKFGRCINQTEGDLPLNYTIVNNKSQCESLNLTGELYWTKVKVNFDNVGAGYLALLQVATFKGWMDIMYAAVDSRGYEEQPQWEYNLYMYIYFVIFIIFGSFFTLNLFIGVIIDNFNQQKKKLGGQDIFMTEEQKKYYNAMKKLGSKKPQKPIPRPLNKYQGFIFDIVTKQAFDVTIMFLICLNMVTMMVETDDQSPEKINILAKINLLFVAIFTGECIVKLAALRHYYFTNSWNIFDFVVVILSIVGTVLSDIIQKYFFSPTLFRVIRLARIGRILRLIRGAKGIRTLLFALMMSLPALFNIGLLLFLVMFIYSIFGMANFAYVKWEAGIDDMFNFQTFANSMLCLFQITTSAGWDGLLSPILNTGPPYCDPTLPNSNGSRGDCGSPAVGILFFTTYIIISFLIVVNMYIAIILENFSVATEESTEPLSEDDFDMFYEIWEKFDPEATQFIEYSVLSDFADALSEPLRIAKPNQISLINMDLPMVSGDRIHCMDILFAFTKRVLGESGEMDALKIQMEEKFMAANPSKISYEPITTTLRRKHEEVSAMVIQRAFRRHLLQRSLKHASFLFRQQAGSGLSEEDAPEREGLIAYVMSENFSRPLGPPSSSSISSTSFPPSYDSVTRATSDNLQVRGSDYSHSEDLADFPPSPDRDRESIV

activation at 10 µM (human Nav1.1; [1]): 146%
SMILES: Cc1cc(N2CCC3(CCC3)C2)nn(CC(=O)N2CCc3c(N4CCN(C)CC4)cccc32)c1=O [Example 225]
activation at 10 µM (human Nav1.5; [2]): 2%

activation at 10 µM (human Nav1.1; [1]): 58%
SMILES: O=C(Cn1nc(C2=CCC(F)(F)CC2)ccc1=O)Nc1ccc(C(F)(F)F)nc1 [Example 103]
activation at 10 µM (human Nav1.5; [2]): 13%

activation at 3 µM (human Nav1.1; [3]): 50%
SMILES: COc1ncc(C2=CCN(C(=O)Cn3nc(C4=CCC(C(F)(F)F)CC4)ccc3=O)CC2)cn1 (stereo not drawn) [Example 510]
activation at 3 µM (human Nav1.5; [4]): 7%

Nav1.1 current amplification rate (%) (human Nav1.1; [1]): 11%
SMILES: COc1cccc2c1CCN2C(=O)Cn1nc(C2=CCC(C)(C)CC2)ccc1=O [Example 431]
Nav1.5 current amplification rate (%) (human Nav1.5; [2]): 3%

activation at 10 µM (human Nav1.1; [1]): 46%
SMILES: CN1CCN(c2cccc3c2CCN3C(=O)Cn2nc(N3CCC(C)(C)CC3)ccc2=O)CC1 [Example 223]
activation at 10 µM (human Nav1.5; [2]): 0%

Nav1.1 current amplification rate (%) (human Nav1.1; [1]): 218%
SMILES: COc1cc(C2=CCC(C)CC2)nn(CC(=O)Nc2ccn3ccnc3c2)c1=O (stereo not drawn) [Example 463]
Nav1.5 current amplification rate (%) (human Nav1.5; [2]): 9%

Nav1.1 current amplification rate (%) (human Nav1.1; [3]): 127%
SMILES: CC1CC=C(c2ccc(=O)n(CC(=O)N3CCc4c(C5CCN(C)C5)cccc43)n2)CC1 (mixture of isomers) [Example 269]
Nav1.5 current amplification rate (%) (human Nav1.5; [4]): 266%

activation at 10 µM (human Nav1.1; [1]): 129%
SMILES: O=C(Cn1nc(N2CCC3(CCCC3)C2)ccc1=O)Nc1ccn2ccnc2c1 [Example 167]
activation at 10 µM (human Nav1.5; [2]): 21%

activation at 10 µM (human Nav1.1; [1]): 285%
SMILES: O=C(Cn1nc(N2CCCC3(CCC3)C2)ccc1=O)Nc1ccc2scnc2c1 [Example 133]
activation at 10 µM (human Nav1.5; [2]): 12%

Nav1.1 current amplification rate (%) (human Nav1.1; [1]): 157%
SMILES: O=C(Cn1nc(-c2cc(Cl)cs2)ccc1=O)Nc1ccc2ocnc2c1 [Example 454]
Nav1.5 current amplification rate (%) (human Nav1.5; [2]): 35%

activation at 10 µM (human Nav1.1; [1]): 229%
SMILES: O=C(Cn1nc(N2CCC3(CCC3)CC2)ccc1=O)Nc1ccc2scnc2c1 [Example 127]
activation at 10 µM (human Nav1.5; [2]): 58%

Nav1.1 current amplification rate (%) (human Nav1.1; [3]): 187%
SMILES: CC1CC=C(c2ccc(=O)n(CC(=O)Nc3ccn4c(C5CC5)cnc4c3)n2)CC1 (racemic) [Example 335]
Nav1.5 current amplification rate (%) (human Nav1.5; [4]): 65%

activation at 1 µM (human Nav1.1; [5]): 253%
SMILES: CC(=O)N1CC(c2cccc3c2CCN3C(=O)Cn2nc(-c3ccc(C)cc3)ccc2=O)C1 [Example 520]
activation at 1 µM (human Nav1.5; [6]): 252%

Nav1.1 current amplification rate (%) (human Nav1.1; [1]): 121%
SMILES: CC1CCN(c2ccc(=O)n(CC(=O)Nc3ccc4oc(=O)[nH]c4c3)n2)CC1 [Example 82]
Nav1.5 current amplification rate (%) (human Nav1.5; [2]): 5%

activation at 1 µM (human Nav1.1; [5]): 324%
SMILES: O=C(Cn1nc(C2=CCC(F)(F)CC2)ccc1=O)N1CCc2c(-c3ccnnc3)cccc21 [Example 527]
activation at 1 µM (human Nav1.5; [6]): 36%

activation at 10 µM (human Nav1.1; [1]): 89%
SMILES: O=C(Cn1nc(N2CCC3(CCC3)C2)cc(N2CCCC2)c1=O)Nc1ccc2ocnc2c1 [Example 207]
activation at 10 µM (human Nav1.5; [2]): 7%

Nav1.1 current amplification rate (%) (human Nav1.1; [5]): 265%
SMILES: CC1CC=C(c2ccc(=O)n(CC(=O)N3CCc4c(-c5cn[nH]c5)cncc43)n2)CC1 (racemic) [Example 311]
Nav1.5 current amplification rate (%) (human Nav1.5; [6]): 52%

activation at 3 µM (human Nav1.1; [3]): 263%
SMILES: CC1CC=C(c2ccc(=O)n(CC(=O)Nc3ccc4oc(N(C)C)nc4c3)n2)CC1 (stereo not drawn) [Example 244, N-[2-(dimethylamino)-1,3-benzooxazol-5-yl]-2-[3-(4-methylcyclohex-1-en)-6-oxopyridazin-1(6H)-yl]acetamide]
activation at 3 µM (human Nav1.5; [4]): 21%

Nav1.1 current amplification rate (%) (human Nav1.1; [5]): 210%
SMILES: CC1CC=C(c2ccc(=O)n(CC(=O)N3CCc4c3cccc4C(C)(C)O)n2)CC1 (racemic) [Example 277]
Nav1.5 current amplification rate (%) (human Nav1.5; [6]): 18%

activation at 3 µM (human Nav1.1; [3]): 255%
SMILES: COc1nc2cc(NC(=O)Cn3nc(C4=CCC(C)(C)CC4)c(OC)cc3=O)cc(F)c2o1 [Example 494]
activation at 3 µM (human Nav1.5; [4]): 26%

Nav1.1 current amplification rate (%) (human Nav1.1; [1]): 221%
SMILES: CC1CCN(c2ccc(=O)n(CC(=O)Nc3ccc4nsnc4c3)n2)CC1 [Example 95]
Nav1.5 current amplification rate (%) (human Nav1.5; [2]): 18%

Nav1.1 current amplification rate (%) (human Nav1.1; [1]): 487%
SMILES: COc1cc(C2=CCC(C)CC2)nn(CC(=O)N2CCc3c(N4CCOCC4)cccc32)c1=O (racemic) [Example 473]
Nav1.5 current amplification rate (%) (human Nav1.5; [2]): 128%

activation at 3 µM (human Nav1.1; [3]): 238%
SMILES: O=C(Cn1nc(C2=CCC3(CC2)CC3(F)F)ccc1=O)N1CCN(c2cncc(C(F)(F)F)c2)CC1 (stereo not drawn) [Example 509]
activation at 3 µM (human Nav1.5; [4]): 5%

Nav1.1 current amplification rate (%) (human Nav1.1; [3]): 27%
SMILES: COc1cc(N2CCN(C(=O)Cn3nc(C4=CCC(C)CC4)ccc3=O)CC2)ccc1F (stereo not drawn) [Example 413]
Nav1.5 current amplification rate (%) (human Nav1.5; [4]): 1%

activation at 1 µM (human Nav1.1; [5]): 135%
SMILES: C[C@H]1CC=C(c2ccc(=O)n(CC(=O)Nc3ccn4ncnc4c3)n2)CC1 [Example 538, 2-{3-[(4R)-4-methylcyclohex-1-en-1-yl]-6-oxopyridazin-1(6H)-yl}-N-([1,2,4]triazolo[1,5-a]pyridin-7-yl)acetamide]
activation at 1 µM (human Nav1.5; [6]): 45%

SMILES: CC1CCN(c2ccc(=O)n(CC(=O)Nc3ccnc(C(F)(F)F)c3)n2)CC1 [Example 52]
Nav1.1 current amplification rate (%) (human Nav1.1; [1]): 248%
Nav1.5 current amplification rate (%) (human Nav1.5; [2]): 19%

Nav1.1 current amplification rate (%) (human Nav1.1; [3]): 154%
SMILES: Cc1cc(NC(=O)Cn2nc(C3=CCC(C)CC3)ccc2=O)cc2ncoc12 (racemic) [Example 323]
Nav1.5 current amplification rate (%) (human Nav1.5; [4]): 11%

Nav1.1 current amplification rate (%) (human Nav1.1; [5]): 393%
SMILES: CC1CC=C(c2ccc(=O)n(CC(=O)N3CCc4c(N5CCOCC5)cccc43)n2)CC1 (racemic) [Example 245]
Nav1.5 current amplification rate (%) (human Nav1.5; [6]): 32%

Nav1.1 current amplification rate (%) (human Nav1.1; [3]): 231%
SMILES: CC1CC=C(c2ccc(=O)n(CC(=O)N3CCc4c(C5=CCN(C)C5)cccc43)n2)CC1 (racemic) [Example 267]
Nav1.5 current amplification rate (%) (human Nav1.5; [4]): 79%

activation at 1 µM (human Nav1.1; [5]): 155%
SMILES: CC1CCN(c2ccc(=O)n(CC(=O)N3CCc4c(N5CCOCC5)cccc43)n2)CC1 [Example 218]
activation at 1 µM (human Nav1.5; [6]): 9%

Nav1.1 current amplification rate (%) (human Nav1.1; [1]): 93%
SMILES: CC1CCN(c2ccc(=O)n(CC(=O)Nc3cccc(-c4cnco4)c3)n2)CC1 [Example 77]
Nav1.5 current amplification rate (%) (human Nav1.5; [2]): 28%

Nav1.1 current amplification rate (%) (human Nav1.1; [5]): 275%
SMILES: COc1cc(C2=CCC(C)(C)CC2)nn(CC(=O)N2CCc3c(N4CCOCC4)cccc32)c1=O [Example 468]
Nav1.5 current amplification rate (%) (human Nav1.5; [6]): 75%

Nav1.1 current amplification rate (%) (human Nav1.1; [5]): 109%
SMILES: CC1CC=C(c2ccc(=O)n(CC(=O)Nc3ccn4nncc4c3)n2)CC1 (racemic) [Example 342]
Nav1.5 current amplification rate (%) (human Nav1.5; [6]): 52%

Nav1.1 current amplification rate (%) (human Nav1.1; [1]): 283%
SMILES: CC1(C)CC=C(c2ccc(=O)n(CC(=O)Nc3ccn4ccnc4c3)n2)CC1 [Example 425]
Nav1.5 current amplification rate (%) (human Nav1.5; [2]): 60%

Nav1.1 current amplification rate (%) (human Nav1.1; [1]): 277%
SMILES: CC1CCC(c2ccc(=O)n(CC(=O)N3CCc4c(N5CCOCC5)cccc43)n2)CC1 (single isomer, unassigned) [Example 535]
Nav1.5 current amplification rate (%) (human Nav1.5; [2]): 10%

activation at 10 µM (human Nav1.1; [1]): 155%
SMILES: O=C(Cn1nc(N2CCC3(CCCC3)C2)ccc1=O)Nc1ccn2nccc2c1 [Example 169]
activation at 10 µM (human Nav1.5; [2]): 43%

Nav1.1 current amplification rate (%) (human Nav1.1; [3]): 115%
SMILES: CC1CC=C(c2ccc(=O)n(CC(=O)Nc3cccc(N4CCOCC4)c3F)n2)CC1 (racemic) [Example 322]
Nav1.5 current amplification rate (%) (human Nav1.5; [4]): 18%

Nav1.1 current amplification rate (%) (human Nav1.1; [5]): 191%
SMILES: CC1CC=C(c2ccc(=O)n(CC(=O)Nc3ccn4ncnc4c3)n2)CC1 (racemic) [Example 330]
Nav1.5 current amplification rate (%) (human Nav1.5; [6]): 47%

activation at 10 µM (human Nav1.1; [1]): 183%
SMILES: Cc1nc2cc(NC(=O)Cn3nc(N4CCC(C)CC4)ccc3=O)cc(Cl)c2o1 [Example 215]
activation at 10 µM (human Nav1.5; [2]): 18%

Source: patent US20220347175A1, “PYRIDAZINONE DERIVATIVE” (Sumitomo Dainippon Pharma Co., Ltd., priority 2018, published 2022)
